Activity data for 16 compounds are collected here from ChEMBL document CHEMBL4308873, “Synthesis and biological evaluation of Ginsenoside Compound K analogues as a novel class of anti-asthmatic agents” (2019).

Common to all, as to type: functional
Experiment [1] has as its system Mus musculus. Description: Anti-asthmatic activity in ovalbumin-induced asthmatic BALB/c mouse model assessed as 12.5 mg/ml methacholine-induced airway resistance at 20 mg/kg, po co-administered with ovalbumin from day 21 to 28 of experiment period measured post last dose by plethysmography (reference value: 6.03 +/- 1.02 cmH2O/ml).
Experiment [2] has as its system Mus musculus. Description: Anti-asthmatic activity in ovalbumin-induced asthmatic BALB/c mouse model assessed as 50 mg/ml methacholine-induced airway resistance at 20 mg/kg, po co-administered with ovalbumin from day 21 to 28 of experiment period measured post last dose by plethysmography (reference value: 64.33 +/- 3.41 cmH2O/ml).
Experiment [3] concerns Mus musculus. Description: Anti-asthmatic activity in ovalbumin-induced asthmatic BALB/c mouse model assessed as 6.25 mg/ml methacholine-induced airway resistance at 20 mg/kg, po co-administered with ovalbumin from day 21 to 28 of experiment period measured post last dose by plethysmography (reference value: 2.44 +/- 0.87 cmH2O/ml).
In experiment [4] the test system is Mus musculus. Description: Anti-asthmatic activity in ovalbumin-induced asthmatic BALB/c mouse model assessed as 100 mg/ml methacholine-induced airway resistance at 20 mg/kg, po co-administered with ovalbumin from day 21 to 28 of experiment period measured post last dose by plethysmography (reference value: 84.5 +/- 2.41 cmH2O/ml).
In experiment [5] the test system is Mus musculus. The experiment can be described thus: Anti-asthmatic activity in ovalbumin-induced asthmatic BALB/c mouse model assessed as IgE level in plasma at 20 mg/kg, po co-administered with ovalbumin from day 21 to 28 of experiment period by ELISA (reference value: 2544.05 +/- 229.07 ng/ml).
For experiment [6], the system named is Mus musculus. The experiment can be described thus: Anti-asthmatic activity in ovalbumin-induced asthmatic BALB/c mouse model assessed as 25 mg/ml methacholine-induced airway resistance at 20 mg/kg, po co-administered with ovalbumin from day 21 to 28 of experiment period measured post last dose by plethysmography (reference value: 14.03 +/- 1.15 cmH2O/ml).

For experiment [7], the system named is Mus musculus. The experiment can be described thus: Anti-asthmatic activity in ovalbumin-induced asthmatic BALB/c mouse model assessed as 100 mg/ml methacholine-induced airway resistance at 0.6 mg/kg, po co-administered with ovalbumin from day 21 to 28 of experiment period measured post last dose by plethysmography (reference value: 84.5 +/- 2.41 cmH2O/ml).

The subject of experiment [8] is Mus musculus. The experiment can be described thus: Anti-asthmatic activity in ovalbumin-induced asthmatic BALB/c mouse model assessed as 6.25 mg/ml methacholine-induced airway resistance at 0.6 mg/kg, po co-administered with ovalbumin from day 21 to 28 of experiment period measured post last dose by plethysmography (reference value: 2.44 +/- 0.87 cmH2O/ml).
Experiment [9] has as its system Mus musculus. The experiment can be described thus: Anti-asthmatic activity in ovalbumin-induced asthmatic BALB/c mouse model assessed as 50 mg/ml methacholine-induced airway resistance at 0.6 mg/kg, po co-administered with ovalbumin from day 21 to 28 of experiment period measured post last dose by plethysmography (reference value: 64.33 +/- 3.41 cmH2O/ml).
Experiment [10] concerns Mus musculus. Description: Anti-asthmatic activity in ovalbumin-induced asthmatic BALB/c mouse model assessed as IgE level in plasma at 0.6 mg/kg, po co-administered with ovalbumin from day 21 to 28 of experiment period by ELISA (reference value: 2544.05 +/- 229.07 ng/ml). In general terms: In an ELISA, binding on a coated surface is turned into a signal by an enzyme label.

For experiment [11], the system named is Mus musculus. The experiment can be described thus: Anti-asthmatic activity in ovalbumin-induced asthmatic BALB/c mouse model assessed as 25 mg/ml methacholine-induced airway resistance at 0.6 mg/kg, po co-administered with ovalbumin from day 21 to 28 of experiment period measured post last dose by plethysmography (reference value: 14.03 +/- 1.15 cmH2O/ml).

The test system of experiment [12] is Mus musculus. Description: Anti-asthmatic activity in ovalbumin-induced asthmatic BALB/c mouse model assessed as 12.5 mg/ml methacholine-induced airway resistance at 0.6 mg/kg, po co-administered with ovalbumin from day 21 to 28 of experiment period measured post last dose by plethysmography (reference value: 6.03 +/- 1.02 cmH2O/ml).

`CC(C)=CCC[C@](C)(O[C@@H]1O[C@H](CO)[C@@H](O)[C@H](O)[C@H]1O)[C@H]1CC[C@]2(C)[C@@H]1[C@H](O)C[C@@H]1[C@@]3(C)CC[C@H](O)C(C)(C)[C@@H]3CC[C@]12C`: the Activity in the experiment with Mus musculus [1] turned out to be 4.14 cmH2O/ml; with Mus musculus [2], 5.04 cmH2O/ml; in the experiment on Mus musculus [3] it was 2.47 cmH2O/ml; in the experiment with Mus musculus [4], 6.21 cmH2O/ml; with Mus musculus [5], 1501.85 ng/mL; in the experiment with Mus musculus [6], 4.79 cmH2O/ml.

`CC(C)=CCC[C@](C)(O[C@H]1O[C@@H](C)[C@H](O)[C@@H](O)[C@H]1O)[C@H]1CC[C@]2(C)[C@@H]1C(=O)C[C@@H]1[C@@]3(C)CC[C@H](O)C(C)(C)[C@@H]3CC[C@]12C`: the Activity with Mus musculus [5] came out at 2706.85 ng/mL.

For `CC(C)=CCC[C@](C)(O[C@@H]1O[C@H](CO)[C@H](O)[C@H](O)[C@H]1O)[C@H]1CC[C@]2(C)[C@@H]1C(=O)C[C@@H]1[C@@]3(C)CC[C@H](O)C(C)(C)[C@@H]3CC[C@]12C`, the Activity is 2.78 cmH2O/ml with Mus musculus [1]; 4.81 cmH2O/ml in the experiment with Mus musculus [2]; 2.04 cmH2O/ml in the experiment with Mus musculus [3]; 6.35 cmH2O/ml with Mus musculus [4]; 975.82 ng/mL in the experiment with Mus musculus [5]; 3.28 cmH2O/ml in the experiment with Mus musculus [6].

On to `CC(C)=CCC[C@](C)(O[C@@H]1O[C@H](CO)[C@@H](O)[C@H](O)[C@H]1O)[C@H]1CC[C@]2(C)[C@@H]1/C(=N/O)C[C@@H]1[C@@]3(C)CC/C(=N\O)C(C)(C)[C@@H]3CC[C@]12C`, for which the Activity in the experiment on Mus musculus [1] stood at 5.06 cmH2O/ml; in the experiment on Mus musculus [2], 4.93 cmH2O/ml; in the experiment with Mus musculus [3], 3.4 cmH2O/ml; in the experiment on Mus musculus [4], 5.73 cmH2O/ml; in the experiment with Mus musculus [5], 1258.27 ng/mL; in the experiment on Mus musculus [6], 5.72 cmH2O/ml.

As to `CC(C)(O)CCC[C@](C)(O[C@@H]1O[C@H](CO)[C@@H](O)[C@H](O)[C@H]1O)[C@H]1CC[C@]2(C)[C@@H]1C(=O)C[C@@H]1[C@@]3(C)CC[C@H](O)C(C)(C)[C@@H]3CC[C@]12C`, the Activity in the experiment on Mus musculus [5] was 2027.95 ng/mL.

Turning to `CO[C@H]1CC[C@]2(C)[C@H]3CC(=O)[C@@H]4[C@@H]([C@](C)(CCC=C(C)C)O[C@@H]5O[C@H](CO)[C@@H](O)[C@H](O)[C@H]5O)CC[C@@]4(C)[C@]3(C)CC[C@H]2C1(C)C`, in the experiment on Mus musculus [5], the Activity was 3593.38 ng/mL.

For `CC(C)=CCC[C@](C)(O[C@@H]1OC[C@@H](O)[C@H](O)[C@H]1O)[C@H]1CC[C@]2(C)[C@@H]1C(=O)C[C@@H]1[C@@]3(C)CC[C@H](O)C(C)(C)[C@@H]3CC[C@]12C`, the Activity with Mus musculus [5] came to 2439.3 ng/mL.

As to `CC(=O)O[C@H]1CC[C@]2(C)[C@H]3CC(=O)[C@@H]4[C@@H]([C@](C)(CCC=C(C)C)O[C@@H]5O[C@H](CO)[C@@H](O)[C@H](O)[C@H]5O)CC[C@@]4(C)[C@]3(C)CC[C@H]2C1(C)C`, the Activity in the experiment with Mus musculus [5] stood at 3224.5 ng/mL.

With `CO/N=C1\CC[C@]2(C)[C@H]3CC(=O)[C@@H]4[C@@H]([C@](C)(CCC=C(C)C)O[C@@H]5O[C@H](CO)[C@@H](O)[C@H](O)[C@H]5O)CC[C@@]4(C)[C@]3(C)CC[C@H]2C1(C)C`, the Activity in the experiment on Mus musculus [5] worked out at 2023.54 ng/mL.

For `CC(C)CCC[C@](C)(O[C@@H]1O[C@H](CO)[C@@H](O)[C@H](O)[C@H]1O)[C@H]1CC[C@]2(C)[C@@H]1C(=O)C[C@@H]1[C@@]3(C)CC[C@H](O)C(C)(C)[C@@H]3CC[C@]12C`, in the experiment with Mus musculus [5], the Activity came out at 1976.31 ng/mL.

On to `CC(C)=CCC[C@](C)(O[C@@H]1O[C@H](CO)[C@@H](O)[C@H](O)[C@H]1O)[C@H]1CC[C@]2(C)[C@@H]1C(=O)C[C@@H]1[C@@]3(C)CCC(=O)C(C)(C)[C@@H]3CC[C@]12C`, for which, in the experiment on Mus musculus [5], the Activity was 2439.3 ng/mL.

In the case of `CC(C)=CCC[C@](C)(O[C@@H]1O[C@H](CO)[C@@H](O)[C@H](O)[C@H]1O)[C@H]1CC[C@]2(C)[C@@H]1C(=O)C[C@@H]1[C@@]3(C)CC/C(=N\O)C(C)(C)[C@@H]3CC[C@]12C`, the Activity in the experiment with Mus musculus [5] is 1968.31 ng/mL.

Take `CC(C)=CCC[C@](C)(O[C@@H]1O[C@H](CO)[C@@H](O)[C@H](O)[C@@H]1O)[C@H]1CC[C@]2(C)[C@@H]1C(=O)C[C@@H]1[C@@]3(C)CC[C@H](O)C(C)(C)[C@@H]3CC[C@]12C`: the Activity is 3.54 cmH2O/ml in the experiment on Mus musculus [1]; 4.94 cmH2O/ml in the experiment on Mus musculus [2]; 2.83 cmH2O/ml with Mus musculus [3]; 5.97 cmH2O/ml in the experiment on Mus musculus [4]; 1136.96 ng/mL in the experiment with Mus musculus [5]; 3.58 cmH2O/ml with Mus musculus [6].

Regarding `CC(C)=CCC[C@](C)(O[C@@H]1O[C@H](CO)[C@@H](O)[C@H](O)[C@H]1O)[C@H]1CC[C@]2(C)[C@@H]1C(=O)C[C@@H]1[C@@]3(C)CC=CC(C)(C)[C@@H]3CC[C@]12C`, the Activity with Mus musculus [1] was determined as 3.24 cmH2O/ml; in the experiment on Mus musculus [2], 5.61 cmH2O/ml; with Mus musculus [3], 2.86 cmH2O/ml; with Mus musculus [4], 5.76 cmH2O/ml; in the experiment on Mus musculus [5] it was 1191.08 ng/mL; with Mus musculus [6], 4.89 cmH2O/ml.

Turning to `CC(C)=CCC[C@](C)(O[C@@H]1O[C@H](CO)[C@@H](O)[C@H](O)[C@H]1O)[C@H]1CC[C@]2(C)[C@@H]1C(=O)C[C@@H]1[C@@]3(C)CC[C@H](O)C(C)(C)[C@@H]3CC[C@]12C`, the Activity is 3.13 cmH2O/ml with Mus musculus [1]; 5.9 cmH2O/ml with Mus musculus [2]; 2.18 cmH2O/ml with Mus musculus [3]; 6.79 cmH2O/ml in the experiment on Mus musculus [4]; 1237.11 ng/mL in the experiment on Mus musculus [5]; 4.65 cmH2O/ml in the experiment on Mus musculus [6].

Consider `CC(=O)OCC(=O)[C@@]1(O)[C@H](C)C[C@H]2[C@@H]3CCC4=CC(=O)C=C[C@]4(C)[C@@]3(F)[C@@H](O)C[C@@]21C` [DEXAMETHASONE ACETATE], for which the Activity in the experiment with Mus musculus [7] worked out at 3.06 cmH2O/ml; in the experiment on Mus musculus [8], 2.89 cmH2O/ml; in the experiment on Mus musculus [9], 3.04 cmH2O/ml; in the experiment on Mus musculus [10] it was 1131.05 ng/mL; in the experiment with Mus musculus [11], 3.36 cmH2O/ml; in the experiment with Mus musculus [12], 3.09 cmH2O/ml.
